Measured values as given in the supplement of paper PMC10307832.

Tests used:
Experiment in all cases: relative viability (nuclei count vs DMSO), 5 days (fraction); higher = more cells survive
NCI-H596 = test system: NCI-H596
Summary of the method: (§1)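 Lung cancer cell lines in 1536-well plates got either a single drug or a fixed anchor-drug dose together with five library-drug doses (not always all listed) in √10 steps, by pin tool, on the day after seeding. Nuclei were counted after 5 days, and relative viability is the treated-to-vehicle ratio of nuclei counts. Values are medians of duplicate plates.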

NCI-H1993 = test system: NCI-H1993
Summary of the method: as §1

HCC-827 = test system: HCC-827
Summary of the method: as §1

LU99A = test system: LU99A
Summary of the method: as §1

NCI-H1944 = test system: NCI-H1944
Summary of the method: as §1

SK-LU-1 = test system: SK-LU-1
Summary of the method: as §1

LC-2-ad = test system: LC-2-ad
Summary of the method: as §1

NCI-H3122 = test system: NCI-H3122
Summary of the method: as §1

NCI-H1915 = test system: NCI-H1915
Summary of the method: as §1

HCC-15 = test system: HCC-15
Summary of the method: as §1

RERF-LC-KJ = test system: RERF-LC-KJ
Summary of the method: as §1

NCI-H1755 = test system: NCI-H1755
Summary of the method: as §1

NCI-H522 = test system: NCI-H522
Summary of the method: as §1

LCLC-97TM1 = test system: LCLC-97TM1
Summary of the method: as §1

COR-L 105 = test system: COR-L 105
Summary of the method: as §1

EKVX = test system: EKVX
Summary of the method: as §1

SK-MES-1 = test system: SK-MES-1
Summary of the method: as §1

BEN = test system: BEN
Summary of the method: as §1

HCC-366 = test system: HCC-366
Summary of the method: as §1

NCI-H2342 = test system: NCI-H2342
Summary of the method: as §1

COR-L23 = test system: COR-L23
Summary of the method: as §1

PC-3 [JPC-3] = test system: PC-3 [JPC-3]
Summary of the method: as §1

COCC1(CO)C(=O)C2CCN1CC2 (stereo not given) [PRIMA-1MET] + Cc1cc(Nc2cc(N3CCN(C)CC3)nc(Sc3ccc(NC(=O)C4CC4)cc3)n2)n[nH]1 [Tozasertib] (partner 0.1 µM)
relative viability (NCI-H596; first compound 0.2 µM): 0.96 | relative viability (NCI-H596; first compound 0.6325 µM): 0.803 | relative viability (NCI-H596; first compound 2 µM): 0.869 | relative viability (NCI-H596; first compound 6.325 µM): 1.02 | relative viability (NCI-H596; first compound 20 µM): 0.102 | relative viability (NCI-H1993; first compound 0.2 µM): 0.674 | relative viability (NCI-H1993; first compound 0.6325 µM): 0.541 | relative viability (NCI-H1993; first compound 2 µM): 0.566 | relative viability (NCI-H1993; first compound 6.325 µM): 0.569 | relative viability (NCI-H1993; first compound 20 µM): 0.662 | relative viability (HCC-827; first compound 0.2 µM): 0.424 | relative viability (HCC-827; first compound 0.6325 µM): 0.387 | relative viability (HCC-827; first compound 2 µM): 0.376 | relative viability (HCC-827; first compound 6.325 µM): 0.399 | relative viability (HCC-827; first compound 20 µM): 0.379 | relative viability (LU99A; first compound 0.2 µM): 0.282 | relative viability (LU99A; first compound 0.6325 µM): 0.268 | relative viability (LU99A; first compound 2 µM): 0.277 | relative viability (LU99A; first compound 6.325 µM): 0.284 | relative viability (LU99A; first compound 20 µM): 0.0311 | relative viability (NCI-H1944; first compound 0.2 µM): 0.225 | relative viability (NCI-H1944; first compound 0.6325 µM): 0.242 | relative viability (NCI-H1944; first compound 2 µM): 0.222 | relative viability (NCI-H1944; first compound 6.325 µM): 0.243 | relative viability (NCI-H1944; first compound 20 µM): 0.23 | relative viability (SK-LU-1; first compound 0.2 µM): 0.4 | relative viability (SK-LU-1; first compound 0.6325 µM): 0.371 | relative viability (SK-LU-1; first compound 2 µM): 0.319 | relative viability (SK-LU-1; first compound 6.325 µM): 0.344 | relative viability (SK-LU-1; first compound 20 µM): 0.24 | relative viability (LC-2-ad; first compound 0.2 µM): 0.422 | relative viability (LC-2-ad; first compound 2 µM): 0.399 | relative viability (LC-2-ad; first compound 6.325 µM): 0.429 | relative viability (LC-2-ad; first compound 20 µM): 0.394 | relative viability (NCI-H3122; first compound 0.2 µM): 0.524 | relative viability (NCI-H3122; first compound 0.6325 µM): 0.361 | relative viability (NCI-H3122; first compound 6.325 µM): 0.388 | relative viability (NCI-H3122; first compound 20 µM): 0.337 | relative viability (NCI-H1915; first compound 0.2 µM): 0.444 | relative viability (NCI-H1915; first compound 0.6325 µM): 0.368 | relative viability (NCI-H1915; first compound 6.325 µM): 0.389 | relative viability (NCI-H1915; first compound 20 µM): 0.364 | relative viability (HCC-15; first compound 0.2 µM): 0.431 | relative viability (HCC-15; first compound 0.6325 µM): 0.363 | relative viability (HCC-15; first compound 2 µM): 0.356 | relative viability (HCC-15; first compound 6.325 µM): 0.422 | relative viability (HCC-15; first compound 20 µM): 0.151 | relative viability (RERF-LC-KJ; first compound 0.2 µM): 0.53 | relative viability (RERF-LC-KJ; first compound 0.6325 µM): 0.523 | relative viability (RERF-LC-KJ; first compound 2 µM): 0.58 | relative viability (RERF-LC-KJ; first compound 6.325 µM): 0.498 | relative viability (RERF-LC-KJ; first compound 20 µM): 0.431 | relative viability (NCI-H1755; first compound 0.2 µM): 0.699 | relative viability (NCI-H1755; first compound 0.6325 µM): 0.596 | relative viability (NCI-H1755; first compound 2 µM): 0.509 | relative viability (NCI-H1755; first compound 6.325 µM): 0.554 | relative viability (NCI-H1755; first compound 20 µM): 0.455 | relative viability (NCI-H522; first compound 0.2 µM): 0.602 | relative viability (NCI-H522; first compound 0.6325 µM): 0.455 | relative viability (NCI-H522; first compound 2 µM): 0.46 | relative viability (NCI-H522; first compound 6.325 µM): 0.507 | relative viability (NCI-H522; first compound 20 µM): 0.0873 | relative viability (LCLC-97TM1; first compound 0.2 µM): 0.237 | relative viability (LCLC-97TM1; first compound 0.6325 µM): 0.239 | relative viability (LCLC-97TM1; first compound 2 µM): 0.325 | relative viability (LCLC-97TM1; first compound 6.325 µM): 0.204 | relative viability (LCLC-97TM1; first compound 20 µM): 0.123 | relative viability (COR-L 105; first compound 0.2 µM): 0.228 | relative viability (COR-L 105; first compound 0.6325 µM): 0.338 | relative viability (COR-L 105; first compound 2 µM): 0.32 | relative viability (COR-L 105; first compound 6.325 µM): 0.294 | relative viability (COR-L 105; first compound 20 µM): 0.167 | relative viability (EKVX; first compound 0.2 µM): 0.452 | relative viability (EKVX; first compound 0.6325 µM): 0.357 | relative viability (EKVX; first compound 6.325 µM): 0.397 | relative viability (EKVX; first compound 20 µM): 0.366 | relative viability (SK-MES-1; first compound 0.2 µM): 1.02 | relative viability (SK-MES-1; first compound 0.6325 µM): 0.888 | relative viability (SK-MES-1; first compound 2 µM): 0.962 | relative viability (SK-MES-1; first compound 6.325 µM): 0.876 | relative viability (SK-MES-1; first compound 20 µM): 0.907 | relative viability (BEN; first compound 0.2 µM): 0.504 | relative viability (BEN; first compound 0.6325 µM): 0.473 | relative viability (BEN; first compound 6.325 µM): 0.501 | relative viability (BEN; first compound 20 µM): 0.538 | relative viability (HCC-366; first compound 0.2 µM): 0.109 | relative viability (HCC-366; first compound 0.6325 µM): 0.107 | relative viability (HCC-366; first compound 2 µM): 0.107 | relative viability (HCC-366; first compound 6.325 µM): 0.209 | relative viability (HCC-366; first compound 20 µM): 0.0297 | relative viability (NCI-H2342; first compound 0.2 µM): 0.58 | relative viability (NCI-H2342; first compound 0.6325 µM): 0.684 | relative viability (NCI-H2342; first compound 2 µM): 0.408 | relative viability (NCI-H2342; first compound 6.325 µM): 0.405 | relative viability (NCI-H2342; first compound 20 µM): 0.349 | relative viability (COR-L23; first compound 0.2 µM): 0.223 | relative viability (COR-L23; first compound 0.6325 µM): 0.285 | relative viability (COR-L23; first compound 2 µM): 0.212 | relative viability (COR-L23; first compound 6.325 µM): 0.195 | relative viability (COR-L23; first compound 20 µM): 0.0198 | relative viability (PC-3 [JPC-3]; first compound 0.2 µM): 0.996 | relative viability (PC-3 [JPC-3]; first compound 0.6325 µM): 0.856 | relative viability (PC-3 [JPC-3]; first compound 2 µM): 0.857 | relative viability (PC-3 [JPC-3]; first compound 6.325 µM): 0.89 | relative viability (PC-3 [JPC-3]; first compound 20 µM): 0.873
